In patent publication US8889591B2, “Herbicidal compositions comprising 4-amino-3-chloro-5-fluoro-6-(4-chloro-2-fluoro-3-methoxyphenyl)pyridine-2-carboxylic acid or a derivative thereof and bromobutide, daimuron, oxaziclomefone or pyributicarb” (Dow Agrosciences LLC, priority 2012, dated 2014):

Experiments:
[1] = tested on: ECHCG; assay: In-water applied greenhouse weed control, transplanted paddy rice system; format: in vivo, Echinochloa crusgalli (L.) Beauv.; details: in-water application; Oxaziclomafone 20 gai/ha alone
Description: Weed seeds or nutlets of the desired test plant species were planted in puddled soil (mud) prepared by mixing a shredded, non-sterilized mineral soil (50.5 percent silt, 25.5 percent clay, and 24 percent sand, with a pH of about 7.6 and an organic matter content of about 2.9 percent) and water at a 1:1 volumetric ratio. The prepared mud was dispensed in 365 mL aliquots into 16-ounce (oz.) non-perforated plastic pots with a surface area of 86.59 square centimeters (cm^2) leaving a headspace of 3 centimeters (cm) in each pot. Mud was allowed to dry overnight prior to planting or transplanting. Rice seeds were planted in Sun Gro MetroMix® 306 planting mixture, which typically has a pH of 6.0 to 6.8 and an organic matter content of about 30 percent, in plastic plug trays. Seedlings at the second or third leaf stage of growth were transplanted into 840 mL of mud contained in 32-oz. non-perforated plastic pots with a surface area of 86.59 cm^2 4 days prior to herbicide application. The paddy was created by filling the headspace of the pots with 2.5 to 3 cm of water. […]
(§1) Treatment requirements for each compound or herbicidal component were calculated based upon the rates being tested, the concentration of active ingredient or acid equivalent in the formulation, an application volume of 2 mL per component per pot, and an application area of 86.59 cm^2 per pot.
For formulated compounds, a measured amount was placed in an individual 100 or 200 mL glass vial and was dissolved in a volume of 1.25% (v/v) Agri-Dex® crop oil concentrate to obtain application solutions. […]
(§2) The treated plants and control plants were placed in a greenhouse as described above and water was added as needed to maintain a paddy flood. After approximately 3 weeks the condition of the test plants as compared with that of the untreated plants was determined visually and scored on a scale of 0 to 100 percent where 0 corresponds to no injury or growth inhibition and 100 corresponds to complete kill. […]

[2] = tested on: CYPIR; assay: Postemergence foliar-applied greenhouse weed control, direct-seeded rice system; format: in vivo, Cyperus iria L.; details: Oxaziclomefone 6.25 gai/ha alone
From the text: (§3) Seeds or nutlets of the desired test plant species were planted in a soil matrix prepared by mixing a loam or sandy loam soil (e.g., 28.6 percent silt, 18.8 percent clay, and 52.6 percent sand, with a pH of about 5.8 and an organic matter content of about 1.8 percent) and calcareous grit in an 80 to 20 ratio. The soil matrix was contained in plastic pots with a volume of 1 quart and a surface area of 83.6 square centimeters (cm^2). When required to ensure good germination and healthy plants, a fungicide treatment and/or other chemical or physical treatment was applied. The plants were grown for 8-22 days in a greenhouse with an approximate 14 h photoperiod which was maintained at about 29° C. during the day and 26° C. during the night. Nutrients (Peters Excel® 15-5-15 5-Ca 2-Mg and iron chelate) were applied in the irrigation solution as needed and water was added on a regular basis. Supplemental lighting was provided with overhead metal halide 1000-Watt lamps as necessary. The plants were employed for testing when they reached the first through fourth true leaf stage. […]
(§4) Treatment requirements were calculated based upon the rates being tested, the concentration of active ingredient or acid equivalent in the formulation, and a 12 mL application volume at a rate of 187 L/ha.
(§5) For treatments comprised of formulated compounds, measured amounts of compounds were placed individually in 25 mL glass vials and diluted in a volume of 1.25% (v/v) Agri-Dex® crop oil concentrated to obtain 12× stock solutions. […]
(§6) For treatments comprised of formulated and technical compounds, weighed amounts of the technical materials were placed individually in 25 mL glass vials and dissolved in a volume of 97:3 v/v acetone/DMSO to obtain 12× stock solutions, and measured amounts of the formulated compounds were placed individually in 25 mL glass vials and diluted in a volume of 1.5% (v/v) crop oil concentrate or water to obtain 12× stock solutions. […]

[3] = tested on: CYPRO; assay: In-water applied greenhouse weed control, transplanted paddy rice system; format: in vivo, Cyperus rotundus L.; details: in-water application
Description: Weed seeds or nutlets of the desired test plant species were planted in puddled soil (mud) prepared by mixing a shredded, non-sterilized mineral soil (50.5 percent silt, 25.5 percent clay, and 24 percent sand, with a pH of about 7.6 and an organic matter content of about 2.9 percent) and water at a 1:1 volumetric ratio. The prepared mud was dispensed in 365 mL aliquots into 16-ounce (oz.) non-perforated plastic pots with a surface area of 86.59 square centimeters (cm^2) leaving a headspace of 3 centimeters (cm) in each pot. Mud was allowed to dry overnight prior to planting or transplanting. Rice seeds were planted in Sun Gro MetroMix® 306 planting mixture, which typically has a pH of 6.0 to 6.8 and an organic matter content of about 30 percent, in plastic plug trays. Seedlings at the second or third leaf stage of growth were transplanted into 840 mL of mud contained in 32-oz. non-perforated plastic pots with a surface area of 86.59 cm^2 4 days prior to herbicide application. The paddy was created by filling the headspace of the pots with 2.5 to 3 cm of water. When required to ensure good germination and healthy plants, a fungicide treatment and/or other chemical or physical treatment was applied. The plants were grown for 4-22 days in a greenhouse with an approximate 14 h photoperiod which was maintained at about 29° C. during the day and 26° C. during the night. Nutrients were added as Osmocote® (19:6:12, N:P:K+ minor nutrients) at 2 g per 16-oz. pot and 4 g per 32-oz. pot. Water was added on a regular basis to maintain the paddy flood, and supplemental lighting was provided with overhead metal halide 1000-Watt lamps as necessary. The plants were employed for testing when they reached the first through fourth true leaf stage.
Treatments consisted of the acid or esters of 4-amino-3-chloro-5-fluoro-6-(4-chloro-2-fluoro-3-methoxy-phenyl)pyridine-2-carboxylic acid (compound A) each formulated as an SC and various herbicidal components alone and in combination. Forms of compound A were applied on an acid equivalent basis.
Other herbicidal components were applied on an active ingredient basis and included daimuron formulated as an EC, bromobutide (technical grade material), and oxaziclomefone (technical grade material).
as §1
For formulated compounds, a measured amount was placed in an individual 100 or 200 mL glass vial and was dissolved in a volume of 1.25% (v/v) Agri-Dex® crop oil concentrate to obtain application solutions.
For technical grade compounds, a weighed amount was placed in an individual 100 to 200 mL glass vial and was dissolved in a volume of acetone to obtain concentrated stock solutions. […] The concentrated stock solutions obtained were diluted with an equivalent volume of an aqueous mixture containing 2.5% (v/v) crop oil concentrate so that the final application solutions contained 1.25% (v/v) crop oil concentrate.
Applications were made by injecting, with a pipetter, appropriate amounts of the application solutions, individually and sequentially, into the aqueous layer of the paddy. Control plants were treated in the same manner with the solvent blank. Applications were made so that all treated plant material received the same concentrations of acetone and crop oil concentrate.
as §2

[4] = tested on: SCPJU; assay: Postemergence foliar-applied greenhouse weed control, direct-seeded rice system; format: in vivo, Schoenoplectus juncoides (Roxb.) Palla; details: Oxaziclomefone 6.25 gai/ha alone
From the text: as §3, §4, §5, §6

## CC1=C(c2ccccc2)C(=O)N(C(C)(C)c2cc(Cl)cc(Cl)c2)CO1 [Oxaziclomefone, 3-[1-(3,5-dichlorophenyl)-1-methylethyl]-2,3-dihydro-6-methyl-5-phenyl-4H-1,3-oxazin-4-one]
[1]
  Visual Weed Control (%) - 21 DAA ECHCG Obs: 80%
[2]
  Visual Weed Control (%) - 22 DAA CYPIR Obs: 0%
[3]; Oxaziclomafone 20 gai/ha alone (Table 6)
  Visual Weed Control (%) - 21 DAA CYPRO Obs: 0%
[3]; Oxaziclomafone 20 gai/ha alone (Table 7)
  Visual Weed Control (%) - 21 DAA CYPRO Obs: 0%
[3]; Oxaziclomafone 40 gai/ha alone (Table 7)
  Visual Weed Control (%) - 21 DAA CYPRO Obs: 0%
[4]
  Visual Weed Control (%) - 22 DAA SCPJU Obs: 0%
